Source: US9193722B2, “Tri-cyclic pyrazolopyridine kinase inhibitors” (Vertex Pharmaceuticals Incorporated, priority 2008, dated 2015)

Key:
Assay type in all cases: biochemical
PKC theta kinase = PKC theta kinase (Homo sapiens, UniProt Q04759); test: PKC theta kinase inhibition, coupled-enzyme (NADH absorbance) assay, Ki; conditions: 240 μM ATP, 18 nM PKC theta kinase, 30° C.
Outline: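 Coupled-enzyme kinase assay following NADH absorbance at 340 nm, in 100 mM HEPES pH 7.5, 10 mM MgCl2, 25 mM NaCl, 0.1 mM EDTA, 0.01% Brij. Compound in DMSO preincubated with enzyme 10 min at 30 °C. Ki from initial rates by non-linear regression.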

PKC delta kinase = PKC delta kinase (Homo sapiens, UniProt Q05655); test: PKC delta kinase inhibition, coupled-enzyme (NADH absorbance) assay, Ki; conditions: 150 μM ATP, 46 nM PKC delta kinase, 30° C.; read-out: Ki PKC delta
PKC delta kinase, sequence (Q05655 whole entry): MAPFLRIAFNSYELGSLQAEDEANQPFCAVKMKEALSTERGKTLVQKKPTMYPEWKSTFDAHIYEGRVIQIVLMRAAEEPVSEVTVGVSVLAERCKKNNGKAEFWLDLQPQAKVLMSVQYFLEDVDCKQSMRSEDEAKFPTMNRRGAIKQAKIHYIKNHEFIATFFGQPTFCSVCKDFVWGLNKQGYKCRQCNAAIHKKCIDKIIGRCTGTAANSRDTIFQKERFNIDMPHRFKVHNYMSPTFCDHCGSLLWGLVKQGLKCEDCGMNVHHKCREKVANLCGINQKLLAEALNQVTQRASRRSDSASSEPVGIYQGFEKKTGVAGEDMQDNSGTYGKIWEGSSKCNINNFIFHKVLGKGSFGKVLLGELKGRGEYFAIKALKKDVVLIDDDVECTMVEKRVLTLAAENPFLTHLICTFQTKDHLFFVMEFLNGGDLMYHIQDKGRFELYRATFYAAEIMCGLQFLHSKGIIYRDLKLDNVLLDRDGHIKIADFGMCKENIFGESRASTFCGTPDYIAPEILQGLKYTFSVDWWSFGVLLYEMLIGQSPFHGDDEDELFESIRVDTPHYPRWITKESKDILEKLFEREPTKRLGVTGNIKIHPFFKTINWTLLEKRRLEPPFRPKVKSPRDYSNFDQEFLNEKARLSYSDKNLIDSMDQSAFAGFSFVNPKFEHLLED
Outline: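 PKC delta in 100 mM HEPES pH 7.5, 10 mM MgCl2, 25 mM NaCl, 0.1 mM EDTA, 0.01% Brij, equilibrated 10 min at 30° C with compound from DMSO stock. Started with ATP at 150 μM final; NADH-coupled absorbance at 340 nm followed 15 min at 30° C. Ki from initial rates by non-linear regression.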

PKC alpha kinase = PKC alpha kinase (Homo sapiens, UniProt P17252); test: PKC alpha kinase inhibition, coupled-enzyme (NADH absorbance) assay, Ki; conditions: 130 μM ATP, 4.5 nM PKC alpha kinase, 30° C.
Outline: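 Enzyme in 100 mM HEPES pH 7.5, 10 mM MgCl2, 100 μM CaCl2, 0.01% Brij, preincubated with compound 10 min at 30 °C. Reaction started with 130 μM ATP (final); NADH consumption followed at 340 nm for 15 min at 30 °C. Ki fitted by non-linear regression of initial rates.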

PKC theta kinase, sequence (Q04759 whole entry): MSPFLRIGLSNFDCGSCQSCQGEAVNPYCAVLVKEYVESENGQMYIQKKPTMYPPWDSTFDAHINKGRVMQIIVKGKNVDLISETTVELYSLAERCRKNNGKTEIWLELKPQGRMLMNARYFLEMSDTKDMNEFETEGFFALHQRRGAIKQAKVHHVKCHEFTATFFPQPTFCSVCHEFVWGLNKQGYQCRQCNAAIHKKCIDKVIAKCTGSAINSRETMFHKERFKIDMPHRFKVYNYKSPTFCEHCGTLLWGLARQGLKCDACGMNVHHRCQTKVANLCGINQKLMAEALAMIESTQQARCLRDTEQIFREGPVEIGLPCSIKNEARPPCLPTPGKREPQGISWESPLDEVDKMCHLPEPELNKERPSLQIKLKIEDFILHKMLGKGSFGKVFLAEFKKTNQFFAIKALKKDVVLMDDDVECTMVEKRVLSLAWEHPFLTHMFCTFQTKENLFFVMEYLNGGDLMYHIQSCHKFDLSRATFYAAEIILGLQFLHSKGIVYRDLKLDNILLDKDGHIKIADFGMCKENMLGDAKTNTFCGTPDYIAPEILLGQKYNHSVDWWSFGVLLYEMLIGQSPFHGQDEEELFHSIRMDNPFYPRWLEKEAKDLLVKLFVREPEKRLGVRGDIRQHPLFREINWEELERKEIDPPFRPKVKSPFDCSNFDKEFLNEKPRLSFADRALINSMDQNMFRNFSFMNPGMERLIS

Q: With `CC(C)C(N)[C@@H]1CCCN(c2ccc(F)c(-c3n[nH]c4ncccc34)n2)C1` (stereo partly drawn) [Compound 281] as the compound, how does the Ki (PKC theta kinase) read?
A: < 50 nM

Q: And the Ki (PKC delta kinase)?
A: > 1250 nM

Q: What about the Ki (PKC alpha kinase) of the same compound?
A: > 1250 nM

Q: With `CC(C)C[C@@H]1CN(c2ccc(C(F)(F)F)c(-c3n[nH]c4ncccc34)n2)CC[C@@H]1N` [Compound 138] as the compound, how does the Ki (PKC theta kinase) read?
A: < 50 nM

Q: What about the Ki (PKC delta kinase) of the same compound?
A: < 500 nM

Q: What about the Ki (PKC alpha kinase) of the same compound?
A: < 2800 nM

Q: For `NC[C@H]1CCN(c2ccc(F)c(-c3n[nH]c4ncccc34)n2)C1` [Compound 362], which Ki (PKC theta kinase) is on record?
A: < 500 nM

Q: And the Ki (PKC delta kinase)?
A: > 1250 nM

Q: What about the Ki (PKC alpha kinase) of the same compound?
A: > 1250 nM

Q: Which Ki (PKC theta kinase) does the source give for `OC1(C2CN(c3cccc(-c4n[nH]c5ncccc45)n3)CCN2)COC1` (stereo not drawn) [Compound 232] here?
A: > 700 nM

Q: What about the Ki (PKC delta kinase) of the same compound?
A: > 1250 nM

Q: What about the Ki (PKC alpha kinase) of the same compound?
A: > 1250 nM

Q: What does the source list for `CCC(CC)C(N)C1CCCN(c2ccc(F)c(-c3n[nH]c4ncccc34)n2)C1` (stereo not drawn) [Compound 391]?
A: Ki (PKC theta kinase): < 50 nM; Ki (PKC delta kinase): < 2800 nM; Ki (PKC alpha kinase): > 1250 nM

Q: `CC(C)C[C@H]1CN(c2cccc(-c3n[nH]c4ncccc34)n2)CC[C@@H]1O` [Compound 145] was tested. Which Ki (PKC theta kinase) did it give?
A: < 500 nM

Q: And the Ki (PKC delta kinase)?
A: > 1250 nM

Q: And the Ki (PKC alpha kinase)?
A: > 1250 nM

Q: Which results are given for `CC(C)C[C@H]1CN(c2ccc(C(F)(F)F)c(-c3n[nH]c4ncc(F)cc34)n2)CCN1` [Compound 44]?
A: Ki (PKC theta kinase): < 50 nM; Ki (PKC delta kinase): < 2800 nM; Ki (PKC alpha kinase): < 2800 nM

Q: Which Ki (PKC theta kinase) does the source give for `FC(F)(F)C1CN(c2cccc(-c3n[nH]c4ncccc34)n2)CCN1` (stereo not drawn) [Compound 25] here?
A: < 500 nM

Q: What about the Ki (PKC delta kinase) of the same compound?
A: < 2800 nM

Q: What about the Ki (PKC alpha kinase) of the same compound?
A: > 1250 nM

Q: Which results are given for `c1cc(-c2n[nH]c3ncccc23)nc(N2CCNC(C3CC3)C2)c1` (stereo not drawn) [Compound 41]?
A: Ki (PKC theta kinase): < 50 nM; Ki (PKC delta kinase): < 500 nM; Ki (PKC alpha kinase): > 1250 nM

Q: Which results are given for `NC(=O)C1(N)CCN(c2ccc(F)c(-c3n[nH]c4ncccc34)n2)CC1` [Compound 399]?
A: Ki (PKC theta kinase): > 700 nM; Ki (PKC delta kinase): > 1250 nM; Ki (PKC alpha kinase): > 1250 nM

Q: With `CC(C)CC1(O)CNCCN(c2ccc(F)c(-c3n[nH]c4ncccc34)n2)C1` (stereo not drawn) [Compound 196] as the compound, how does the Ki (PKC theta kinase) read?
A: < 500 nM

Q: And the Ki (PKC delta kinase)?
A: > 1250 nM

Q: What about the Ki (PKC alpha kinase) of the same compound?
A: > 1250 nM

Q: With `CNC1CCN(c2cccc(-c3n[nH]c4ncccc34)n2)C1` (stereo not drawn) [Compound 24] as the compound, how does the Ki (PKC theta kinase) read?
A: < 2800 nM

Q: What about the Ki (PKC delta kinase) of the same compound?
A: > 2000 nM

Q: And the Ki (PKC alpha kinase)?
A: > 1250 nM

Q: Which Ki (PKC theta kinase) does the source give for `CCC(C)(O)C1CN(c2ccc(F)c(-c3n[nH]c4ncccc34)n2)CCN1` (stereo not drawn) [Compound 243] here?
A: < 500 nM

Q: And the Ki (PKC delta kinase)?
A: > 1250 nM

Q: And the Ki (PKC alpha kinase)?
A: > 1250 nM

Q: `CC(C)C(C)(O)C1CN(c2ccc(C(F)(F)F)c(-c3n[nH]c4ncccc34)n2)CCN1` (stereo not drawn) [Compound 236] was tested. Which Ki (PKC theta kinase) did it give?
A: < 50 nM

Q: What about the Ki (PKC delta kinase) of the same compound?
A: > 1250 nM

Q: What about the Ki (PKC alpha kinase) of the same compound?
A: > 1250 nM

Q: With `CC(C)(F)CC1CN(c2ccc(F)c(-c3n[nH]c4ncccc34)n2)CCN1` (stereo not drawn) [Compound 151] as the compound, how does the Ki (PKC theta kinase) read?
A: < 50 nM

Q: What about the Ki (PKC delta kinase) of the same compound?
A: < 500 nM

Q: And the Ki (PKC alpha kinase)?
A: > 1250 nM

Q: What does the source list for `CC(C)(C)[C@H]1CN(c2cccc(-c3n[nH]c4ncccc34)n2)CCN1` [Compound 76]?
A: Ki (PKC theta kinase): < 50 nM; Ki (PKC delta kinase): < 500 nM; Ki (PKC alpha kinase): < 2800 nM

Q: With `NC[C@H]1CCN(c2ccc(C(F)(F)F)c(-c3n[nH]c4ncccc34)n2)C1` [Compound 354] as the compound, how does the Ki (PKC theta kinase) read?
A: > 700 nM

Q: And the Ki (PKC delta kinase)?
A: > 1250 nM

Q: And the Ki (PKC alpha kinase)?
A: > 1250 nM

Q: Which results are given for `CC(C)C[C@H]1CN(c2ccc(C(F)(F)F)c(-c3n[nH]c4ncccc34)n2)CCCN1` [Compound 224]?
A: Ki (PKC theta kinase): < 500 nM; Ki (PKC delta kinase): > 1250 nM; Ki (PKC alpha kinase): > 1250 nM

Q: What does the source list for `CC(C)C(C)(O)C1CN(c2nc(-c3n[nH]c4ncccc34)ccc2F)CCN1` (stereo not drawn) [Compound 328]?
A: Ki (PKC theta kinase): < 1 nM; Ki (PKC delta kinase): < 10 nM; Ki (PKC alpha kinase): < 500 nM

Q: For `NCCC1CCCN(c2ccc(F)c(-c3n[nH]c4ncccc34)n2)C1` (stereo not drawn) [Compound 304], which Ki (PKC theta kinase) is on record?
A: > 700 nM

Q: What about the Ki (PKC delta kinase) of the same compound?
A: > 1250 nM

Q: And the Ki (PKC alpha kinase)?
A: > 1250 nM

Q: Which results are given for `N#CC1(c2cccc(-c3n[nH]c4ncccc34)n2)CCNCC1` [Compound 234]?
A: Ki (PKC theta kinase): < 50 nM; Ki (PKC delta kinase): < 500 nM; Ki (PKC alpha kinase): < 500 nM

Q: Which results are given for `FC(F)(F)c1ccc(N2CCNC(C(F)(F)F)C2)nc1-c1n[nH]c2ncccc12` (stereo not drawn) [Compound 65]?
A: Ki (PKC theta kinase): < 500 nM; Ki (PKC delta kinase): > 2000 nM; Ki (PKC alpha kinase): > 1250 nM

Q: Which Ki (PKC theta kinase) does the source give for `CCC[C@H]1CN(c2ccc(C(F)(F)F)c(-c3n[nH]c4ncccc34)n2)CC(F)(F)CN1` [Compound 223] here?
A: > 700 nM

Q: What about the Ki (PKC delta kinase) of the same compound?
A: > 1250 nM

Q: And the Ki (PKC alpha kinase)?
A: > 1250 nM

Q: Which results are given for `NC(c1ccccc1)C1CCCN(c2ccc(F)c(-c3n[nH]c4ncccc34)n2)C1` (stereo not drawn) [Compound 301]?
A: Ki (PKC theta kinase): < 500 nM; Ki (PKC delta kinase): > 1250 nM; Ki (PKC alpha kinase): > 1250 nM

Q: For `CS(=O)(=O)NCC1CCCN(c2ccc(F)c(-c3n[nH]c4ncccc34)n2)C1` (stereo not drawn) [Compound 371], which Ki (PKC theta kinase) is on record?
A: > 700 nM

Q: And the Ki (PKC delta kinase)?
A: > 1250 nM

Q: And the Ki (PKC alpha kinase)?
A: > 1250 nM

Q: With `FC1(c2cccc(-c3n[nH]c4ncccc34)n2)CCNCC1` [Compound 83] as the compound, how does the Ki (PKC theta kinase) read?
A: < 50 nM

Q: What about the Ki (PKC delta kinase) of the same compound?
A: < 500 nM

Q: And the Ki (PKC alpha kinase)?
A: < 2800 nM
